{
  "source": "patent US11020462B2",
  "about": "“Methods for treatment of diseases” (SERPIN PHARMA, LLC, priority 2015, dated 2021)",
  "key": {"TNF-alpha": {"system": "TNF-alpha", "assay": "LPS challenged mouse model of sepsis, TNF-alpha levels", "assay_type": "in vivo", "description": "Specifically, in these particular fragments, the three most N-terminal and the two most C-terminal amino acids appear to play a role in the anti-inflammatory properties of the peptides as replacement of them appeared to reduce the capacity of the peptides to reduce TNF-alpha levels in a LPS challenged mouse model of sepsis (see, e.g., PCT/US13/20498; which is incorporated by reference herein in its entirety). Accordingly, in some aspects of all embodiments of the invention the peptides are selected from SP40, SP43, SP46, and SP49 the peptide sequences of which are set forth in Table B.\nTable C below presents additional exemplary peptides that were used to reduce TNF-alpha levels in mice subjected to an LPS challenge. Also the peptides with capacity to reduce TNF-alpha levels as described in PCT/US13/20498; which is incorporated by reference herein in its entirety, are contemplated for the compositions, pharmaceutical compositions and methods of use and treatment of inflammatory conditions in the present invention."}, "recombinant LRP1 protein": {"target": "T1, recombinant LRP1 protein (Homo sapiens, UniProt Q07954)", "T1 construct": "purchased R&D Systems, Minneapolis, Minn", "T1 sequence (Q07954 with tags, fused parts or gaps limits assumed, species assumed)": "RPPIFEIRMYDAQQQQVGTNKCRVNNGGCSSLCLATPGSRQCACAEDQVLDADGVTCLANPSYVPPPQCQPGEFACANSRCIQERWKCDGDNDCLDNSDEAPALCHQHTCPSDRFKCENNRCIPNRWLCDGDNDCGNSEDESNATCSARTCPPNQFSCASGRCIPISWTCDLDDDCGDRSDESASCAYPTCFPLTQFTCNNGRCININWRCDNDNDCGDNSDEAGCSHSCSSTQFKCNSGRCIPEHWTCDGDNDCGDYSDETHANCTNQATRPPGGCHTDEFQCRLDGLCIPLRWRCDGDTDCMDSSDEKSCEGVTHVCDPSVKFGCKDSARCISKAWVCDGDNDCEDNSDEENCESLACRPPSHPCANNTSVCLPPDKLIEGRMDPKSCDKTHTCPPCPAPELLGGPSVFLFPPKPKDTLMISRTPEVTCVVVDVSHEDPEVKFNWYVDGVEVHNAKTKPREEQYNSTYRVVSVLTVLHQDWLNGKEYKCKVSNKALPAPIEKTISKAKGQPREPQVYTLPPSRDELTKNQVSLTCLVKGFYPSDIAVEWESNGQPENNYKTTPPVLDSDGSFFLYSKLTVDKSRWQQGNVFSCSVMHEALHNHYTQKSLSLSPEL", "assay": "in vitro binding of biotin-peptide to recombinant LRP1 (streptavidin bead pull-down, western blot)", "experimental": "An in vitro assay was performed to examine SP163M binding to LRP1. To perform the assay, recombinant LRP1 protein (1 μg/ml) (R&D Systems, Minneapolis, Minn.) was incubated on ice in the presence of biotin-SP163M (1-5 μg/ml) at 4° C. for 1 hour. This mixture was then incubated with 1 mg/ml M280 Streptavidin Dynabeads (Invitrogen, Carlsbad, Calif.) for 1.5 hours at 4° C. Dynabeads were washed in PBS+0.1% Tween20 and boiled in SDS loading buffer for 5 minutes. The supernatants were separated on NuPAGE 4-12% Bis-Tris gels (Invitrogen) and transferred to nitrocellulose membranes. The membranes were probed with anti-LRP1 (LRP-1 Cluster II Affinity Purified Polyclonal Ab, R&D, Minneapolis, Minn.) and incubated overnight at 4° C. The membranes were then washed 3 times with TBS-T and incubated with secondary HRP-coupled anti-goat diluted 1:10,000 in 5% milk TBS-T. The western blots were visualized by chemiluminescence using SuperSignal West Femto Maximum Sensitivity Substrate kit (ThermoScientific) and a Bio Rad Molecular Imager ChemiDoc XRS system (Bio-Rad, Hercules, Calif.)."}, "[1]": {"system": "inflammatory reaction that occurs after AMI", "settings": "pilot clinical study; cited from earlier work"}, "[2]": {"system": "experimental acute myocardial infarction (AMI) in the mouse", "settings": "AAT at onset of ischemia or at time of reperfusion, cited from earlier work"}, "LRP1": {"target": "T2, LRP1 (Mus musculus, UniProt Q91ZX7)", "T2 construct": "from tissue; host or cells: living CD1 mice (heart, in vivo)", "assay": "experimental AMI in mice pretreated with LRP1 blocking antibody", "assay_type": "in vivo", "settings": "LRP1 antibody clone 5A6 3 mg/kg 16 hours before surgery; SP163M 100 μg or AAT 60 mg/kg i.p. after reperfusion, FIG. 14", "experimental": "To examine the whether LRP1 mediates the cardioprotective effect of SP163M, groups of mice were treated with an LRP1 blocking antibody prior to experimental AMI. The resulting infarct size and LV systolic function were measured\nAdult out-bred male CD1 mice (10 weeks of age) supplied by Harlan Sprague Dawley (Indianapolis, Ind.) were used in this study. A single operator (S.T.) skilled in coronary artery surgical ligation in mice performed all surgeries. Experimental AMI was induced by transient coronary artery ligation of the left anterior descending coronary artery for 30 minutes to induce ischemia of the anterior wall and the apex (visible as pallor) followed by reperfusion, and leading to an infarct involving approximately 15% of the left ventricle. […]\nInfarct size (reported in FIG. 14A) was measured as previously described. […] The infarcted tissue (appearing white) and the viable tissue (bright red) were measured by computer morphometry using Image Pro Plus 6.0 software (Media Cybernetics, Silver Spring, Md.). […]\nLV systolic function (reported in FIG. 14B) was determined as well. […] We measured the left ventricular (LV) end-diastolic and end-systolic areas at B-Mode and the LV end-diastolic diameter (LVEDD), LV end-systolic diameters (LVESD) at M-Mode. LV fractional shortening (FS) and LV ejection fraction (EF) were calculated. […]"}, "111 human receptors": {"system": "111 human receptors", "assay": "human receptor panning, GenSEP Explorer panel of 111 in vitro assay targets", "settings": "111 targets", "description": "In addition, we also performed a profile using human receptor panning. The GenSEP Explorer panel contains 111 in vitro assay targets carefully selected to assess drug/chemical biological activities. Assay categories include GPCRs, Voltage-Gated Ion Channels, Ligand-Gated Ion Channels, Neurotransmitter transporters, Nuclear Receptors and Steroids as well as a diverse set of biochemical targets including phosphodiesterases, kinases and other relevant enzymes."}, "healthy mouse": {"system": "healthy mouse", "assay": "cardiac contractility in the healthy mouse (echocardiography, isoproterenol challenge)", "assay_type": "in vivo", "settings": "FIG. 7", "experimental": "To test the effect of SP163M on heart contractility the following study was conducted. […] SP34 is a peptide with a scrambled sequence of SP16 and is used as a control peptide.\nTen-weeks-old ICR mice were treated with SP163M (100 μg/mouse i.p.), the control peptide SP34 (100 μg/mouse) or the vehicle solution. Echocardiography was used to assess left ventricular (LV) fractional shortening at baseline and after 180 minutes.\nCardiac contractility reserve was tested with isoproterenol challenge (10 ng/kg i.p.), measuring the increase in LV fractional shortening within 5′ of treatment. Each group included at least 6 mice."}, "hERG": {"target": "T3, hERG (Homo sapiens, UniProt Q12809)", "T3 construct": "Apredica, Boston, Mass; (contract laboratory that ran the study)", "T3 sequence (Q12809 whole entry)": "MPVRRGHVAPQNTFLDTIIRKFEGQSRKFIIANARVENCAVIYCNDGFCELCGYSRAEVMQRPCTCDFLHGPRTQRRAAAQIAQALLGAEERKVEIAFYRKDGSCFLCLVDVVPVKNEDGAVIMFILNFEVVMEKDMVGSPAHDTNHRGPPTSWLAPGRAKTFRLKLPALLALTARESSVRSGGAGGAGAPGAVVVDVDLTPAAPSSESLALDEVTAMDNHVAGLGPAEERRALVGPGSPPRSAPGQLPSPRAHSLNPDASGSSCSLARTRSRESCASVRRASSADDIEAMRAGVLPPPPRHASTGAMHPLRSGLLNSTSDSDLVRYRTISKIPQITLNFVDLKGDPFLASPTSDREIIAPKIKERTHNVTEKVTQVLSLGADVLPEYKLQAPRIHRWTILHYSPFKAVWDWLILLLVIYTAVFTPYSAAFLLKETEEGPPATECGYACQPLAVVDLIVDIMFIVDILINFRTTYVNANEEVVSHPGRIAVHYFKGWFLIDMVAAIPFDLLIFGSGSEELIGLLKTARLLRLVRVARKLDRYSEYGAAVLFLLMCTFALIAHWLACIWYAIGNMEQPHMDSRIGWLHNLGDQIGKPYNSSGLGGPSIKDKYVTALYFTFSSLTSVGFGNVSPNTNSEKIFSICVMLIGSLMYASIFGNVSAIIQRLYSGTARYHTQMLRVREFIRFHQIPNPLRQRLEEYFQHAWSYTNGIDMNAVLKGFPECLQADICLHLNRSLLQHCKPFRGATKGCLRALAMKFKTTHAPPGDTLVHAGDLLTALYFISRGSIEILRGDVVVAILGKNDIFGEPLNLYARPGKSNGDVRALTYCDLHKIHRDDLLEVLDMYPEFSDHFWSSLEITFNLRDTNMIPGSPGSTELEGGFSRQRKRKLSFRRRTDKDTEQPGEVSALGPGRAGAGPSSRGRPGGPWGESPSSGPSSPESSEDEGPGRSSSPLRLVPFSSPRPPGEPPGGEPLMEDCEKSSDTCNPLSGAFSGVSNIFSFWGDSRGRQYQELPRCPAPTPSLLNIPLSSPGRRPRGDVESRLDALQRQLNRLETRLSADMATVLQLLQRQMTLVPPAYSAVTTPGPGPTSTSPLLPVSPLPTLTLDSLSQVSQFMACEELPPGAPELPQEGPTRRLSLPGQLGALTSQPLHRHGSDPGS", "assay": "cell-based", "assay_type": "cell-based"}, "[3]": {"assay": "SP16 pharmacokinetic profile after intravenous injection (LC/MS/MS of plasma)", "assay_type": "in vivo, rats", "experimental": "The following table provides the results from an assay for SP16's pharmacokinetic profile. In performing the assay, three normal rats were injected intravenously with 5 mg/kg SP16 and the plasma concentration of SP16 established at 8 time points following the injection. […] The assay was executed by Apredica, Boston, Mass."}, "[4]": {"settings": "rat, in vivo, SP16, IV (5 mg/kg), normal rats"}},
  "note": "Values joined by “and” are separate entries in the source; they are usually repeats but may differ in a detail not shown here. Identical values can stand only once. “Also recorded” adds a separate entry of the source. Like-named read-outs stand apart in the source and are kept apart here.",
  "data": [
    {"compound": "V K F N K P A A A L M I E Q N T K (VKFNKPAAALMIEQNTK; listed as Homo sapiens) [SP43]", "values": [
      {"measurement": "anti-inflammatory effect", "setting": "TNF-alpha", "result": "particularly good anti-inflammatory effect"}
    ]},
    {"compound": "V K F N K P F V F A A A E Q N T K (VKFNKPFVFAAAEQNTK; listed as Homo sapiens) [SP46]", "values": [
      {"measurement": "anti-inflammatory effect", "setting": "TNF-alpha", "result": "particularly good anti-inflammatory effect"}
    ]},
    {"compound": "A A A N K P F V F L M I E Q N T K (AAANKPFVFLMIEQNTK; listed as Homo sapiens) [SP37]", "values": [
      {"measurement": "binding to LRP1 (statement without method)", "setting": "recombinant LRP1 protein", "result": "bind LRP1"}
    ]},
    {"compound": "V K F N K P F V F L M I A A A T K (VKFNKPFVFLMIAAATK; listed as Homo sapiens) [SP49]", "values": [
      {"measurement": "anti-inflammatory effect", "setting": "TNF-alpha", "result": "particularly good anti-inflammatory effect"}
    ]},
    {"compound": "V K F A A A F V F L M I E Q N T K (VKFAAAFVFLMIEQNTK; listed as Homo sapiens) [SP40]", "values": [
      {"measurement": "anti-inflammatory effect", "setting": "TNF-alpha", "result": "particularly good anti-inflammatory effect"},
      {"measurement": "binding to LRP1 (statement without method)", "setting": "recombinant LRP1 protein", "result": "bind LRP1"}
    ]},
    {"compound": "AAT: plasma derived alpha-1 antitrypsin (AAT) (Aralast N P, Baxter); circulating serum protein, parent of SP16", "values": [
      {"measurement": "safety and efficacy in blocking the inflammatory reaction after AMI", "setting": "[1]", "result": "preliminary safety and efficacy"},
      {"measurement": "infarct size", "setting": "[2]; vs albumin, FIG. 3", "result": "significantly smaller infarct size; also recorded: reduces infarct size"},
      {"measurement": "cardiac healing and remodeling", "setting": "[2]", "result": "more favorable cardiac healing and remodeling"},
      {"measurement": "protective effects (infarct size, LV systolic function) after LRP1 blocking antibody", "setting": "LRP1", "result": "eliminates the cardioprotective effects; also recorded: eliminated the protective effects"}
    ]},
    {"compound": "V K F N K P F V F L M I E Q A A A (VKFNKPFVFLMIEQAAA; listed as Homo sapiens) [SP51]", "values": [
      {"measurement": "binding to LRP1 (statement without method)", "setting": "recombinant LRP1 protein", "result": "bind LRP1"}
    ]},
    {"compound": "CC[C@H](C)[C@H](NC(=O)[C@H](CCSC)NC(=O)[C@H](CC(C)C)NC(=O)[C@H](Cc1ccccc1)NC(=O)[C@@H](NC(=O)[C@H](Cc1ccccc1)NC(=O)[C@@H]1CCCN1C(=O)[C@H](CCCCN)NC(=O)[C@H](CC(N)=O)NC(=O)[C@H](Cc1ccccc1)NC(=O)[C@H](CCCCN)NC(=O)[C@@H](N)C(C)C)C(C)C)C(=O)N[C@@H](CCC(=O)O)C(=O)N[C@@H](CCC(N)=O)C(=O)N[C@@H](CC(N)=O)C(=O)N[C@H](C(=O)N[C@@H](CCCCN)C(=O)O)[C@@H](C)O", "note": "[SP16]", "values": [
      {"measurement": "effect on the human receptor panel (in words)", "setting": "111 human receptors", "result": "not able to identify any hits; also recorded: no effect on 111 human receptors"},
      {"measurement": "heart contractility", "setting": "healthy mouse", "result": "does not affect heart contractility"},
      {"measurement": "IC50", "setting": "hERG", "result": "> 25", "unit": "µM"},
      {"measurement": "comment: concentration-dependent inhibition of hERG observed or not", "setting": "hERG; 0.008-25 μM", "result": "No concentration-dependent"},
      {"measurement": "activity at 0.008 µM", "setting": "hERG; hERG, 0.008 μM", "result": 89, "unit": "%"},
      {"measurement": "activity at 0.04 µM", "setting": "hERG; hERG, 0.04 μM", "result": 95, "unit": "%"},
      {"measurement": "activity at 0.2 µM", "setting": "hERG; hERG, 0.2 μM", "result": 95, "unit": "%"},
      {"measurement": "activity at 1 µM", "setting": "hERG; hERG, 1 μM", "result": 78, "unit": "%"},
      {"measurement": "activity at 5 µM", "setting": "hERG; hERG, 5 μM", "result": 88, "unit": "%"},
      {"measurement": "activity at 25 µM", "setting": "hERG; hERG, 25 μM", "result": 89, "unit": "%"},
      {"measurement": "inhibition of hERG (in words)", "setting": "hERG; up to 25 μM", "result": "does not impact hERG activity; also recorded: does not inhibit hERG"},
      {"measurement": "Last Time point", "setting": "[3]; SP16, IV (5 mg/kg), normal rats", "result": 8.0},
      {"measurement": "Cmax", "setting": "[3]; rat, in vivo, iv, 5 mg/kg intravenously, three normal rats", "result": 2500, "unit": "ng/mL"},
      {"measurement": "half-life", "setting": "[3]; rat, in vivo, iv, 5 mg/kg intravenously, three normal rats, read-out: T1/2 (half-life) (converted)", "result": 1.9, "unit": "h"},
      {"measurement": "C0", "setting": "[3]; [4]", "result": 2500, "unit": "ng/mL"},
      {"measurement": "MRT inf", "setting": "[3]; [4]", "result": 1.1, "unit": "h"},
      {"measurement": "AUC", "setting": "[3]; rat, in vivo, SP16, IV (5 mg/kg), normal rats, read-out: AUC to Last", "result": 900, "unit": "ng·h/mL"},
      {"measurement": "clearance", "setting": "[3]; rat, in vivo, SP16, IV (5 mg/kg), normal rats, read-out: Total CL (converted)", "result": "2.33 mL/min and 9.7 mL/min/kg"},
      {"measurement": "Vd", "setting": "[3]; rat, in vivo, SP16, IV (5 mg/kg), normal rats, read-out: Vss", "result": 0.149, "unit": "L"},
      {"measurement": "Vd", "setting": "[3]; rat, plasma, SP16, IV (5 mg/kg), normal rats, read-out: V", "result": 0.374, "unit": "L"}
    ]}
  ]
}
